Laboratory results published in the Kinase Knowledgebase extract (Sharma et al. 2016).

Biological target: PIK3CA (human) (UniProt P42336)
Test: Cell-Based Assay

Sequence of PIK3CA (human) (P42336 whole entry, looked up): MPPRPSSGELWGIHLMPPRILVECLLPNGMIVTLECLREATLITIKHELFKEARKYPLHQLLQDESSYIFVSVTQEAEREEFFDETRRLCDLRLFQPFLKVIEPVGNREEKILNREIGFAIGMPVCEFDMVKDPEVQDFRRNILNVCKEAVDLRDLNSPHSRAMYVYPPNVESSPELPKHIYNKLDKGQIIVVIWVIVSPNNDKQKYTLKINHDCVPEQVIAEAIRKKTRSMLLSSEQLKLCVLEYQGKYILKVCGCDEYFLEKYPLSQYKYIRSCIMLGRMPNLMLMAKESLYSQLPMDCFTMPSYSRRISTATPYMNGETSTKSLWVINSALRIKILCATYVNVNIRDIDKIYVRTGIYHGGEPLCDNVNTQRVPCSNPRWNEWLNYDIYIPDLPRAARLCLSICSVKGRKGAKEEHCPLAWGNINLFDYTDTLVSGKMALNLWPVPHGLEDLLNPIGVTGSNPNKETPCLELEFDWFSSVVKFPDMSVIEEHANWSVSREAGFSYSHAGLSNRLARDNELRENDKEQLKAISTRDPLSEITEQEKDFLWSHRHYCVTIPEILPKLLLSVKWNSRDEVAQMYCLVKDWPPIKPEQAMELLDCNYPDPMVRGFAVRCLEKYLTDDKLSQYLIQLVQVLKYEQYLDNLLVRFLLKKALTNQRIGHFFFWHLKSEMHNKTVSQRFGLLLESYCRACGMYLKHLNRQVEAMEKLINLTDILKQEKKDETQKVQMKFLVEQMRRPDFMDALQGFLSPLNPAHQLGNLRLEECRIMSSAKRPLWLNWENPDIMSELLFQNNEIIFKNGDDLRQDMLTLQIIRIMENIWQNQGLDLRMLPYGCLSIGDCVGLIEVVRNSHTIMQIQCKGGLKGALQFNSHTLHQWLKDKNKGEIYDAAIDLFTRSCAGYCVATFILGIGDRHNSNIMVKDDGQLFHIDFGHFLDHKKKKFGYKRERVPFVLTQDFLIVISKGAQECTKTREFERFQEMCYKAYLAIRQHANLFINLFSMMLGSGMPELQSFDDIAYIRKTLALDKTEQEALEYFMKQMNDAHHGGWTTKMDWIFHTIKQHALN

## CN1CCN(c2cnc3ccc(-c4ccc5oc(N)nc5c4)cc3n2)CC1=O
t47d
  IC50: 100 to 1000 nM

## Nc1nc2cc(-c3ccc4ncc(N5CC(N6CCN(CCO)CC6)C5)cc4n3)ccc2o1
mda-mb-361
  IC50: 100 to 1000 nM

## Nc1nc2cc(-c3ccc4ncc(-c5cccnc5)cc4n3)ccc2o1
mda-mb-361
  IC50: > 10000 nM

## CCOC(=O)N1CCN(c2cnc3ccc(-c4ccc5oc(N)nc5c4)nc3c2)CC1
mda-mb-361
  IC50: 100 to 1000 nM

## CCN(CC)CC(=O)N1CCN(c2cnc3ccc(-c4ccc5oc(N)nc5c4)cc3n2)CC1
t47d
  IC50: 100 to 1000 nM

## CCOC(=O)N1CCN(c2cnc3ccc(-c4ccc5oc(N)nc5c4)nc3n2)CC1
mda-mb-361
  IC50: 100 to 1000 nM

## Nc1nc2cc(-c3ccc4ncc(C(=O)N5CC[C@H](O)C5)n4c3)ccc2o1
t47d
  IC50: 100 to 1000 nM

## CC(C)(N)C(=O)N1CCN(c2cnc3ccc(-c4ccc5oc(N)nc5c4)cc3n2)CC1
t47d
  IC50: 100 to 1000 nM

## Nc1nc2cc(-c3ccc4ncc(N5CCN(C(=O)C6(N)CCC6)CC5)nc4c3)ccc2o1
t47d
  IC50: 100 to 1000 nM

## CC(=O)N1CCC(Nc2ncnc3ccc(-c4ccc5oc(N)nc5c4)nc23)CC1
t47d
  IC50: 100 to 1000 nM

## Nc1nc2cc(-c3ccc4ncc(N5CC(N6CCOCC6)C5)nc4c3)ccc2o1
t47d
  IC50: 100 to 1000 nM

## Nc1nc2cc(-c3ccc4ncc(N5CCN(CC6CC6)CC5)nc4c3)ccc2o1
t47d
  IC50: 100 to 1000 nM

## O=C(c1cnc2ccc(-c3cnc(Cl)c(NS(=O)(=O)c4ccc(F)cc4)c3)cn12)N1CCOCC1
pc3
  IC50: 100 to 1000 nM

## Nc1nc2cc(-c3ccc4ncc(N5CC(N6CCN(CCO)CC6)C5)nc4c3)ccc2o1
t47d
  IC50: 100 to 1000 nM

## Nc1nc2cc(-c3ccn4ncc(-c5ccncc5)c4c3)ccc2o1
t47d
  IC50: 100 to 1000 nM

## Nc1nc2cc(-c3ccc4ncc(N5CCN(C(=O)[C@H](N)CO)CC5)nc4c3)ccc2o1
t47d
  IC50: 100 to 1000 nM

## C[C@H](N)C(=O)N1CCN(c2cnc3ccc(-c4ccc5oc(N)nc5c4)cc3n2)CC1
t47d
  IC50: 100 to 1000 nM

## C[C@@H]1CN(C2CN(c3cnc4ccc(-c5ccc6oc(N)nc6c5)nc4c3)C2)CCN1
mda-mb-361
  IC50: 100 to 1000 nM

## C[C@@H]1COCCN1c1cnc2ccc(-c3ccc4oc(N)nc4c3)nc2n1
mda-mb-361
  IC50: 100 to 1000 nM

## CNC(=O)CN1CCN(c2cnc3ccc(-c4ccc5oc(N)nc5c4)cc3n2)CC1
t47d
  IC50: 100 to 1000 nM

## C[C@@H]1CN(C2CN(C(=O)c3cnc4ccc(-c5ccc6oc(N)nc6c5)cn34)C2)CCN1C
pc3
  IC50: 100 to 1000 nM

## Nc1nc2cc(-c3ccc4ncc(N5CC(C(=O)N6CCOCC6)C5)nc4c3)ccc2o1
t47d
  IC50: 100 to 1000 nM

## CN1CCN(C2CN(C(=O)c3cnc4ccc(-c5ccc6oc(N)nc6c5)cn34)C2)CC1
t47d
  IC50: 100 to 1000 nM

## Nc1nc2cc(-c3ccc4ncnc(OC5CCOCC5)c4c3)ccc2o1
t47d
  IC50: 100 to 1000 nM

## Nc1nc2cc(-c3ccc4ncc(C(=O)N5CC[C@H](n6cccn6)C5)n4c3)ccc2o1
pc3
  IC50: 100 to 1000 nM

## CC(=O)N1CCC(N(C)c2ncnc3ccc(-c4ccc5oc(N)nc5c4)cc23)CC1
t47d
  IC50: 100 to 1000 nM

## CN1CCC(N(C)C(=O)c2cnc3ccc(-c4ccc5oc(N)nc5c4)cn23)CC1
pc3
  IC50: 100 to 1000 nM

## Nc1nc2cc(-c3ccc4ncc(C(=O)NCCCN5CCCC5)n4c3)ccc2o1
t47d
  IC50: 100 to 1000 nM

## C[C@@H]1CN(C(=O)C2CN(c3cnc4ccc(-c5ccc6oc(N)nc6c5)cc4n3)C2)CCN1
t47d
  IC50: 100 to 1000 nM

## COC1CN(C(=O)c2cnc3ccc(-c4ccc5oc(N)nc5c4)cn23)C1
pc3
  IC50: 100 to 1000 nM

## C[C@@H]1CN(C2CN(c3cnc4ccc(-c5ccc6oc(N)nc6c5)cc4n3)C2)CCN1
t47d
  IC50: 100 to 1000 nM

## Nc1nc2cc(-c3ccc4nnc(C(=O)N5CCOCC5)n4c3)ccc2o1
t47d
  IC50: > 10000 nM

## CN1CCN(C2CN(c3cnc4ccc(-c5ccc6oc(N)nc6c5)nc4c3)C2)CC1=O
mda-mb-361
  IC50: 100 to 1000 nM

## Nc1nc2cc(-c3ccc4ncc(N5CCCCC5)nc4c3)ccc2o1
t47d
  IC50: > 10000 nM

## CC(C)N1CCN(C2CN(c3cnc4ccc(-c5ccc6oc(N)nc6c5)nc4c3)C2)CC1
mda-mb-361
  IC50: 100 to 1000 nM

## Nc1nc2cc(-c3ccc4ncc(N5CC(N6CCS(=O)(=O)CC6)C5)nc4c3)ccc2o1
t47d
  IC50: 100 to 1000 nM

## Nc1nc2cc(-c3ccc4ncc(N5CC(C(=O)N6CCN(C7CC7)CC6)C5)nc4c3)ccc2o1
t47d
  IC50: 100 to 1000 nM

## Nc1nc2cc(-c3ccc4ncc(N5CC6CCC(C5)O6)nc4n3)ccc2o1
mda-mb-361
  IC50: 100 to 1000 nM

## CN1CCN(C2CN(c3cnc4ccc(-c5ccc6oc(N)nc6c5)cc4n3)C2)CC1
t47d
  IC50: 100 to 1000 nM

## CC1(C)CN(C2CN(c3cnc4ccc(-c5ccc6oc(N)nc6c5)nc4c3)C2)CCN1
mda-mb-361
  IC50: 100 to 1000 nM

## C[C@H]1CN(C2CN(C(=O)c3cnc4ccc(-c5ccc6oc(N)nc6c5)cn34)C2)CCN1C
pc3
  IC50: 100 to 1000 nM

## CN1CCN(CCNc2cnc3ccc(-c4ccc5oc(N)nc5c4)cc3n2)CC1
t47d
  IC50: 100 to 1000 nM

## Nc1nc2cc(-c3ccc4ncc(C(=O)Nc5cccnc5)n4c3)ccc2o1
t47d
  IC50: > 10000 nM

## CC1CN(c2cnc3ccc(-c4ccc5oc(N)nc5c4)cc3n2)CCN1 (stereo not given)
t47d
  IC50: > 10000 nM

## Nc1nc2cc(-c3ccc4ncc(N5CCC(O)CC5)nc4n3)ccc2o1
mda-mb-361
  IC50: 100 to 1000 nM

## CS(=O)(=O)N1CCN(Cc2cc3nc(-c4ccc5oc(N)nc5c4)nc(N4CCOCC4)c3s2)CC1
pc3
  IC50: 100 to 1000 nM

## CC(C)(N)C(=O)N1CCN(c2cnc3ccc(-c4ccc5oc(N)nc5c4)nc3c2)CC1
mda-mb-361
  IC50: 100 to 1000 nM

## Cc1cn(-c2cnc3ccc(-c4ccc5oc(N)nc5c4)cc3n2)cn1
t47d
  IC50: > 10000 nM

## Nc1nc2cc(-c3ccc4ncc(NC5CCOCC5)nc4c3)ccc2o1
t47d
  IC50: 100 to 1000 nM

## Nc1nc2cc(-c3ccc4ncc(C(=O)NC5CC5)n4c3)ccc2o1
t47d
  IC50: 100 to 1000 nM
